Measurements as given in patent US9790201B2, “Piperidine and azepine derivatives as prokineticin receptor modulators” (TAKEDA PHARMACEUTICAL COMPANY LIMITED, priority 2013, dated 2017).
Counter-ions that a name gives are not always drawn.

Target: human PKR1 receptors (Homo sapiens (Human), UniProt Q8TCW9)
Experiment: PKR1 antagonist assay: block of PK1-mediated intracellular calcium release (FLIPR Tetra)
Type: cell-based
Settings: RBL2H3 cells expressing human PKR1; stimulation with PK1 at EC80; calcium fluorescence
Description: Prokineticin receptor 1 (PKR1) antagonists may be functionally assessed by measurement of change in intracellular calcium levels induced by Gq mediated increase in inositol triphosphate (IP3) levels. The ability of a compound to block the intracellular release of calcium mediated by PK1 in RBL2H3 cells expressing human PKR1 receptors is determined as a measure of the compound's antagonist activity in vitro.
Approximately 10,000 cells per assay well are seeded in normal culture medium in a 384 well plate (Corning). Twenty-four hours after seeding, the cells are loaded with a calcium sensitive fluorescent dye by replacing the culture medium with assay buffer (1× Hanks buffered saline, 25 mM HEPES, 0.1% w/v fatty acid free BSA (bovine serum albumin), pH 7.4) containing 1 mM probenecid and 1× Calcium 5 Reagent (Molecular Devices). Cells are incubated at 37° C. for 1 hour to allow for dye uptake.
To test for antagonist activity, test compounds at a final concentration range between 0.32 nM-10 μM (diluted in assay buffer) are added to the assay wells and allowed to incubate for 10 minutes prior to stimulation with PK1. After incubation with test compounds the assay plate is placed in a FLIPR Tetra (Molecular Devices) and PK1 (diluted in assay buffer) is added at the determined EC80 concentration (final). Ligand-dependent changes in intracellular calcium levels are determined by measuring changes in fluorescence of the dye at […] following excitation at 485 nm.

Sequence of human PKR1 receptors (Q8TCW9 whole entry): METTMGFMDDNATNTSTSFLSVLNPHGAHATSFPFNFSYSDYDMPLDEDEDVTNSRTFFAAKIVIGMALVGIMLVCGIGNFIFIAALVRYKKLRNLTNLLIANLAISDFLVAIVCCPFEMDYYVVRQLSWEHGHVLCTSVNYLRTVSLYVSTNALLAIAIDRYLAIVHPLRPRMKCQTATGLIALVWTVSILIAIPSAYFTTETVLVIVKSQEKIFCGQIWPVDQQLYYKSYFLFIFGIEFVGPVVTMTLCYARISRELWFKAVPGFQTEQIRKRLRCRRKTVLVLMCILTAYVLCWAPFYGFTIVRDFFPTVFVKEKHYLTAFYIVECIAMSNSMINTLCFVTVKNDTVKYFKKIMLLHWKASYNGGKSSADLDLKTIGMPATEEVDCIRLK

| SMILES | IC50 |
| --- | --- |
| Cc1cc(C(=O)N2CCCC(c3ccc(Cl)cc3)C2)cc(C)n1 (stereo not shown) [Example 28, 4-{[3-(4-Chlorophenyl)piperidin-1-yl]carbonyl}-2,6-dimethylpyridine] | 1330 nM |
| O=C(c1ccnc(Cl)c1)N1CCCC(c2ccc(Cl)cc2)C1 (stereo not shown) [Example 29, 2-Chloro-4-{[3-(4-chlorophenyl)piperidin-1-yl]carbonyl}pyridine] | 3290 nM |
| CC(C)c1cc(C(=O)N2CCCC(c3ccc(Cl)cc3)C2)ccn1 (stereo not shown) [Example 30, 4-{[3-(4-Chlorophenyl)piperidin-1-yl]carbonyl}-2-(propan-2-yl)pyridine] | 830 nM |
| CNc1cc(C(=O)N2CCCC(c3ccc(Cl)cc3C)C2)ccn1 (stereo not shown) [Example 31, 4-{[3-(4-Chloro-2-methylphenyl)piperidin-1-yl]carbonyl}-N-methylpyridin-2-amine] | 30 nM |
| COc1cc(C(=O)N2CCCC(c3ccc(Cl)cc3C)C2)ccn1 (stereo not shown) [Example 32, 4-{[3-(4-Chloro-2-methylphenyl)piperidin-1-yl]carbonyl}-2-methoxypyridine] | 490 nM |
| Cc1cc(Cl)ccc1C1CCCN(C(=O)c2ccnc(N3CCC3)c2)C1 (stereo not shown) [Example 33, 2-(Azetidin-1-yl)-4-{[3-(4-chloro-2-methylphenyl)piperidin-1-yl]carbonyl}pyridine] | 90 nM |
| COc1cc(C(=O)N2CCCC(c3ccc(C)cc3)C2)ccn1 (stereo not shown) [Example 34, 2-Methoxy-4-{[3-(4-methylphenyl)piperidin-1-yl]carbonyl}pyridine] | 5270 nM |
| Cc1ccc(C2CCCN(C(=O)c3ccnc(N4CCCC4)c3)C2)cc1 (stereo not shown) [Example 35, 4-{[3-(4-Methylphenyl)piperidin-1-yl]carbonyl}-2-(pyrrolidin-1-yl)pyridine] | 8820 nM |
| COc1cccc([C@@H]2CCCN(C(=O)c3ccnc(N(C)C)c3)C2)c1 [Example 36, 4-{[(3S)-3-(3-Methoxyphenyl)piperidin-1-yl]carbonyl}-N,N-dimethylpyridin-2-amine] | 5510 nM |
| CCN(C)c1cc(C(=O)N2CCCC(c3ccc(C)cc3)C2)ccn1 (stereo not shown) [Example 37, N-Ethyl-N-methyl-4-{[3-(4-methylphenyl)piperidin-1-yl]carbonyl}pyridin-2-amine] | 5530 nM |
| Cc1ccc(C2CCCN(C(=O)c3ccnc(N4CC(F)(F)C4)c3)C2)cc1 (stereo not shown) [Example 38, 2-(3,3-Difluoroazetidin-1-yl)-4-{[3-(4-methylphenyl)piperidin-1-yl]carbonyl}pyridine] | 6500 nM |
| CCCN(C)c1cc(C(=O)N2CCCC(c3ccc(C)cc3)C2)ccn1 (stereo not shown) [Example 39, N-Methyl-4-{[3-(4-methylphenyl)piperidin-1-yl]carbonyl}-N-propylpyridin-2-amine] | 8220 nM |
| Cc1ccc(C2CCCN(C(=O)c3ccnc(N(C)C(C)C)c3)C2)cc1 (stereo not shown) [Example 40, N-Methyl-4-{[3-(4-methylphenyl)piperidin-1-yl]carbonyl}-N-(propan-2-yl)pyridin-2-amine] | 7030 nM |
| Cc1ccc(C2CCCN(C(=O)c3ccnc(N4CC(O)C4)c3)C2)cc1 (stereo not shown) [Example 41, 1-(4-{[3-(4-Methylphenyl)piperidin-1-yl]carbonyl}pyridin-2-yl)azetidin-3-ol] | 8460 nM |
| CCOc1cc(C(=O)N2CCCC(c3ccc(Cl)cc3)C2)ccn1 (stereo not shown) [Example 42, 4-{[3-(4-Chlorophenyl)piperidin-1-yl]carbonyl}-2-ethoxypyridine] | 8350 nM |
| Cc1ccc(C2CCCN(C(=O)c3ccnc(N(C)C4CC4)c3)C2)cc1 (stereo not shown) [Example 43, N-Cyclopropyl-N-methyl-4-{[3-(4-methylphenyl)piperidin-1-yl]carbonyl}pyridin-2-amine] | 7050 nM |
| CN(C)c1cc(C(=O)N2CCCC(c3ccc(C(F)(F)F)cc3)C2)ccn1 (stereo not shown) [Example 44, N,N-Dimethyl-4-({3-[4-(trifluoromethyl)phenyl]piperidin-1-yl}carbonyl)pyridin-2-amine formate] | 4400 nM |
| CN(C)c1cc(C(=O)N2CCCC(c3ccccc3C(F)(F)F)C2)ccn1 (stereo not shown) [Example 45, N,N-Dimethyl-4-({3-[2-(trifluoromethyl)phenyl]piperidin-1-yl}carbonyl)pyridin-2-amine] | 220 nM |
| CN(C)c1cc(C(=O)N2CCCC(c3ccccc3Cl)C2)ccn1 (stereo not shown) [Example 46, 4-{[3-(2-Chlorophenyl)piperidin-1-yl]carbonyl}-N,N-dimethylpyridin-2-amine] | 7790 nM |
| COc1ccc(C2CCCN(C(=O)c3ccnc(N(C)C)c3)C2)cc1 (stereo not shown) [Example 47, 4-{[3-(4-Methoxyphenyl)piperidin-1-yl]carbonyl}-N,N-dimethylpyridin-2-amine] | 460 nM |

| SMILES | IC50 |
| --- | --- |
| COc1ccccc1C1CCCN(C(=O)c2ccnc(N(C)C)c2)C1 (stereo not shown) [Example 48, 4-{[3-(2-Methoxyphenyl)piperidin-1-yl]carbonyl}-N,N-dimethylpyridin-2-amine] | 410 nM |
| Cc1ccc(C2CCCN(C(=O)c3ccnc(N(C)C)c3)C2)cc1 (stereo not shown) [Example 49, N,N-Dimethyl-4-{[3-(4-methylphenyl)piperidin-1-yl]carbonyl}pyridin-2-amine] | 420 nM |
| CCc1cc(C(=O)N2CCCC(c3ccc(Cl)cc3)C2)ccn1 (stereo not shown) [Example 52, 4-{[3-(4-Chlorophenyl)piperidin-1-yl]carbonyl}-2-ethylpyridine] | 510 nM |
| CNc1cc(C(=O)N2CCCC(c3ccc(C(F)(F)F)cc3)C2)ccn1 (stereo not shown) [Example 53, N-Methyl-4-({3-[4-(trifluoromethyl)phenyl]piperidin-1-yl}carbonyl)pyridin-2-amine] | 2920 nM |
| CNc1cc(C(=O)N2CCCC(c3ccccc3C(F)(F)F)C2)ccn1 (stereo not shown) [Example 54, N-Methyl-4-({3-[2-(trifluoromethyl)phenyl]piperidin-1-yl}carbonyl)pyridin-2-amine] | 230 nM |
| CNc1cc(C(=O)N2CCCC(c3ccc(OC)cc3)C2)ccn1 (stereo not shown) [Example 55, 4-{[3-(4-Methoxyphenyl)piperidin-1-yl]carbonyl}-N-methylpyridin-2-amine hemi formate] | 350 nM |
| CNc1cc(C(=O)N2CCCC(c3ccccc3OC)C2)ccn1 (stereo not shown) [Example 56, 4-{[3-(2-Methoxyphenyl)piperidin-1-yl]carbonyl}-N-methylpyridin-2-amine] | 440 nM |
| CNc1cc(C(=O)N2CCCC(c3ccc(Cl)cc3C(F)(F)F)C2)ccn1 (stereo not shown) [Example 57, 4-({3-[4-Chloro-2-(trifluoromethyl)phenyl]piperidin-1-yl}carbonyl)-N-methylpyridin-2-amine] | 50 nM |
| CCc1cc(C(=O)N2CCCC(c3ccccc3C(F)(F)F)C2)ccn1 (stereo not shown) [Example 58, 2-Ethyl-4-({3-[2-(trifluoromethyl)phenyl]piperidin-1-yl}carbonyl)pyridine] | 820 nM |
| CCc1cc(C(=O)N2CCCC(c3ccccc3OC)C2)ccn1 (stereo not shown) [Example 59, 2-Ethyl-4-{[3-(2-methoxyphenyl)piperidin-1-yl]carbonyl}pyridine] | 1600 nM |
| CN(C)c1cc(C(=O)N2CCCC(c3ccccc3OC(F)(F)F)C2)ccn1 (stereo not shown) [Example 60, N,N-Dimethyl-4-({3-[2-(trifluoromethoxy)phenyl]piperidin-1-yl}carbonyl)pyridin-2-amine] | 1600 nM |
| CCOc1cc(Cl)ccc1C1CCCN(C(=O)c2ccnc(N(C)C)c2)C1 (stereo not shown) [Example 61, 4-{[3-(4-Chloro-2-ethoxyphenyl)piperidin-1-yl]carbonyl}-N,N-dimethylpyridin-2-amine] | 100 nM |
| COc1ccc(C2CCCN(C(=O)c3ccnc(N(C)C)c3)C2)c(C(F)(F)F)c1 (stereo not shown) [Example 62, 4-({3-[4-Methoxy-2-(trifluoromethyl)phenyl]piperidin-1-yl}carbonyl)-N,N-dimethylpyridin-2-amine] | 100 nM |
| CNc1cc(C(=O)N2CCCC(c3ccc(OC)cc3C)C2)ccn1 (stereo not shown) [Example 63, 4-{[3-(4-Methoxy-2-methylphenyl)piperidin-1-yl]carbonyl}-N-methylpyridin-2-amine] | 40 nM |
| CNc1cc(C(=O)N2CCCC(c3ccc(OC)cc3C(F)(F)F)C2)ccn1 (stereo not shown) [Example 64, 4-({3-[4-Methoxy-2-(trifluoromethyl)phenyl]piperidin-1-yl}carbonyl)-N-methylpyridin-2-amine formate] | 50 nM |
| CCOc1cc(Cl)ccc1C1CCCN(C(=O)c2ccnc(NC)c2)C1 (stereo not shown) [Example 65, 4-{[3-(4-Chloro-2-ethoxyphenyl)piperidin-1-yl]carbonyl}-N-methylpyridin-2-amine] | 70 nM |
| CN(C)c1cc(C(=O)N2CCCC(c3ccccc3OC(F)F)C2)ccn1 (stereo not shown) [Example 66, 4-({3-[2-(Difluoromethoxy)phenyl]piperidin-1-yl}carbonyl)-N,N-dimethylpyridin-2-amine] | 700 nM |
| CN(C)c1cc(C(=O)N2CCCC(c3ccccc3C#N)C2)ccn1 (stereo not shown) [Example 67, 2-(1-{[2-(Dimethylamino)pyridin-4-yl]carbonyl}piperidin-3-yl)benzonitrile] | 2260 nM |
| Cc1cc(Cl)cc(C)c1C1CCCN(C(=O)c2ccnc(N(C)C)c2)C1 (stereo not shown) [Example 68, 4-{[3-(4-Chloro-2,6-dimethylphenyl)piperidin-1-yl]carbonyl}-N,N-dimethylpyridin-2-amine] | 1540 nM |
| CN(C)c1cc(C(=O)N2CCCC(c3ccc(Cl)cc3)C2)cnn1 (stereo not shown) [Example 69, 5-{[3-(4-Chlorophenyl)piperidin-1-yl]carbonyl}-N,N-dimethylpyridazin-3-amine] | 810 nM |
